Measured values reported in patent publication US11554097B2, “Recombinant production of hybrid lipid-biopolymer materials that self-assemble and encapsulate agents” (Duke University, priority 2017, dated 2023).

Columns and labels:
[1] = cited from earlier work
[2] = Encapsulated drug stability, dialysis against PBS; format: physicochemical
Experimental: Encapsulated drug stability: To measure the encapsulated drug's stability, we selected the encapsulated DOX M-EL[…],80 sample as a model system. […] Free DOX and encapsulated DOX were both made to 400 μM and 250 μL was added with a syringe to small volume Slide-a-Lyzer dialysis cassettes with a 3,500 Da molecular weight cutoff. […] At various time points, 3 mL of the filtrate was removed and replaced with fresh PBS. The fluorescence of the starting sample, filtrate, and retentate were measured in duplicate with a Wallac 1420 Victor3 Plate Reader (Perkin Elmer). Relative fluorescing units were converted to DOX concentrations using a standard curve made using serial dilution of free and encapsulated DOX. […] The cumulative DOX released was calculated and plotted as a function of dialysis time. […] At the end of the one week study, the retentate from each sample was removed and measured.

## COc1cccc2c1C(=O)c1c(O)c3c(c(O)c1C2=O)C[C@@](O)(C(=O)CO)C[C@@H]3O[C@H]1C[C@H](N)[C@H](O)[C@H](C)O1 [DOXFree, doxorubicin]
[1]
  octanol-water distribution coefficient (log D pH 7.5): 2.4
[2]; after a week at 37° C.
  DOX filtered out of cassette: 99%
[2]; dialysis against PBS, 37° C.
  time to reach equilibrium in dialysis: ≤ 24 h
